From ChEMBL document CHEMBL1148885, “Modeling assisted rational design of novel, potent, and selective pyrrolopyrimidine DPP-4 inhibitors” (Bioorg Med Chem Lett, 2007)
pIC50: −log10 of the molar value.

Tests used:
Dipeptidyl peptidase 2 = Dipeptidyl peptidase 2 (Homo sapiens, UniProt Q9UHL4); experiment: Inhibition of QPP
Dipeptidyl peptidase 4 = Dipeptidyl peptidase 4 (Homo sapiens, UniProt P27487)
Dipeptidyl peptidase 8 = Dipeptidyl peptidase 8 (Homo sapiens, UniProt Q6V1X1); experiment: Inhibition of DPP8
Sequence of Dipeptidyl peptidase 8 (Q6V1X1 whole entry): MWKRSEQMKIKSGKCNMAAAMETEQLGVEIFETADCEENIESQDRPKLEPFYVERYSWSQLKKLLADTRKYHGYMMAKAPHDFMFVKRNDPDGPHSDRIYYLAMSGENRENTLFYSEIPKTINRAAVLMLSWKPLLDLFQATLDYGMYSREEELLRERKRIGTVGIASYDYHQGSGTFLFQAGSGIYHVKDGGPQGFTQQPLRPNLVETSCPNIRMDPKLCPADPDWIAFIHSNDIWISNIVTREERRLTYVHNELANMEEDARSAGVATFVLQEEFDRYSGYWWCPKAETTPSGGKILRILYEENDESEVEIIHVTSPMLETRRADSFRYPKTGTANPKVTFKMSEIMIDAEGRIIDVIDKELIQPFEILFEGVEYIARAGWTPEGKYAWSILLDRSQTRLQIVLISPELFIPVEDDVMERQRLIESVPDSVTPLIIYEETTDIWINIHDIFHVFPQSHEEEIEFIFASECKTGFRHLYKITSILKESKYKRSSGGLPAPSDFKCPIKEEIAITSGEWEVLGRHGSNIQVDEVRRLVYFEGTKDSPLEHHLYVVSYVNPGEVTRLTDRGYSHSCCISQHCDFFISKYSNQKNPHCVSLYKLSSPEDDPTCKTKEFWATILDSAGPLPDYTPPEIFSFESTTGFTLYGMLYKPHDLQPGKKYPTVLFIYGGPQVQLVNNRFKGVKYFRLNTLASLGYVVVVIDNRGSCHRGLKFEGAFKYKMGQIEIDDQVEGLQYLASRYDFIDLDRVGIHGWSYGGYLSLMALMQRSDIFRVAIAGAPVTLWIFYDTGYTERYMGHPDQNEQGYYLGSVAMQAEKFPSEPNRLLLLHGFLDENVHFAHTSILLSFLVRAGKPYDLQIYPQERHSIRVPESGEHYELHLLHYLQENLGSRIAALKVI

Dipeptidyl peptidase 9 = Dipeptidyl peptidase 9 (Homo sapiens, UniProt Q86TI2)
Sequence of Dipeptidyl peptidase 9 (Q86TI2 whole entry): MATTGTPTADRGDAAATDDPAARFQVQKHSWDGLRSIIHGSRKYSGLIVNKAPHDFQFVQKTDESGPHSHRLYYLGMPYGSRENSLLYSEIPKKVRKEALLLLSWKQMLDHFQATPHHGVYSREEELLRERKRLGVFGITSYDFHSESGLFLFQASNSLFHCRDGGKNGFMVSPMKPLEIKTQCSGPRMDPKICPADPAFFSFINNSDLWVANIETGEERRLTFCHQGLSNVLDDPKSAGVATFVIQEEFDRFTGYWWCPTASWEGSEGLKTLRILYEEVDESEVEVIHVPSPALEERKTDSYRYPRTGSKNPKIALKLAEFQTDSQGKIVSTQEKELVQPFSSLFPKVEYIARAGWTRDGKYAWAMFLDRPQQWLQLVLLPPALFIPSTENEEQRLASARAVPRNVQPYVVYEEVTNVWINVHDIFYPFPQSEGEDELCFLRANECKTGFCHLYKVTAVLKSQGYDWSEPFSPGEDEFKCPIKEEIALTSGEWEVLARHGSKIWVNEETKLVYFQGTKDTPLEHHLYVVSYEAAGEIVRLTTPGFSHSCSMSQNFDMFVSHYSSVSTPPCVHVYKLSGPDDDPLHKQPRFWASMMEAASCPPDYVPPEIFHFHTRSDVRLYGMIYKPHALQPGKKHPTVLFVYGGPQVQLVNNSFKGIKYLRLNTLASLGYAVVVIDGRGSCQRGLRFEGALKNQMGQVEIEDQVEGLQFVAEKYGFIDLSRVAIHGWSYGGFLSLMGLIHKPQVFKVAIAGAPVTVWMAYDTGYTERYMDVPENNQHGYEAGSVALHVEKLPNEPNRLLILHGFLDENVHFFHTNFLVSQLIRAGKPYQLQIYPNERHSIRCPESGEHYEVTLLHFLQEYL

Sequence of Dipeptidyl peptidase 4 (P27487 whole entry): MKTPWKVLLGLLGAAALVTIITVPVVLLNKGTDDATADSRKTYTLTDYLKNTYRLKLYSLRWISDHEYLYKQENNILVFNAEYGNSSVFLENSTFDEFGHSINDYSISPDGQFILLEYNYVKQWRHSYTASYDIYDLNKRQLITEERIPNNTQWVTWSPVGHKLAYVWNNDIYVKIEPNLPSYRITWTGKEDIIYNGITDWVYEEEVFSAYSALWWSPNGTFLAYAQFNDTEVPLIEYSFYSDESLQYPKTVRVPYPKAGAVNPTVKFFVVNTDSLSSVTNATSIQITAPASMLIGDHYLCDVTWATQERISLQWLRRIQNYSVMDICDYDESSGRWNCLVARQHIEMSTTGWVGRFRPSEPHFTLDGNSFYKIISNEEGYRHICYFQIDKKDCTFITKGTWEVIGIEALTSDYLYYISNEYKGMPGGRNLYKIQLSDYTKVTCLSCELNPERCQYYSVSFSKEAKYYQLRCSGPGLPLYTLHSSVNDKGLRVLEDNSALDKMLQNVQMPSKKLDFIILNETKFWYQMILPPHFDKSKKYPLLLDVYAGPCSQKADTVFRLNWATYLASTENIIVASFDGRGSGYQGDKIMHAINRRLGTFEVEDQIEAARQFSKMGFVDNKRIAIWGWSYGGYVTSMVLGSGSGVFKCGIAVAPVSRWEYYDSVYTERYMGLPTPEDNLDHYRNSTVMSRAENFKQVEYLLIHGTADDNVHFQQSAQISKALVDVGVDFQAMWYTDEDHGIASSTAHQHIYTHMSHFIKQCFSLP

Row | pIC50 (Dipeptidyl peptidase 2) | pIC50 (Dipeptidyl peptidase 4) | pIC50 (Dipeptidyl peptidase 8) | pIC50 (Dipeptidyl peptidase 9) | Structure (SMILES)
1 | 4.17 | 8.18 | – | – | N[C@H]1C[C@@H](N2Cc3ccccc3C2)CC[C@@H]1c1cc(F)c(F)cc1F
2 | < 4.00 | 9.17 | – | – | N[C@H]1C[C@@H](N2Cc3cncnc3C2)CC[C@@H]1c1cc(F)c(F)cc1F
3 | < 4.00 | – | < 4.00 | < 4.00 | N[C@H]1C[C@@H](N2CCn3c(nnc3C(F)(F)F)C2)CC[C@@H]1c1cc(F)c(F)cc1F
4 | 4.21 | 8.28 | – | – | N[C@H]1C[C@@H](N2Cc3cnc(C4CC4)nc3C2)CC[C@@H]1c1cc(F)c(F)cc1F
